Test [1] has as its target T1, FAK phosphorylated at Y397 in HEK-FAK cell line overexpressing human FL FAK protein (Homo sapiens, UniProt Q05397).
T1 construct: expressed in transfected cells
The test is described as follows: Cell based assay, Phospho-FAK ELISA. To be noted: HEK stb. The source says:
D. Cell Based Assay-Phospho-FAK ELISA
The DuoSet IC ELISA (R&D systems—Cat no. DYC4528-5) provided the basic components required for the development of sandwich ELISAs to measure Focal Adhesion Kinase 1 (FAK) phosphorylated at Y397 in cell lysates. An immobilized capture antibody specific for FAK, also known as PTK2, binds both phosphorylated and unphosphorylated protein. After washing away unbound material, a biotinylated detection antibody specific for FAK phosphorylated at Y397 was used to detect only phosphorylated protein, utilizing a standard Streptavidin-HRP format. The cell line used for the assay was a stable HEK-FAK cell line overexpressing human FL FAK protein, which was generated as follows.
HEK293 cells (ATCC® CRL-1573™, 10801 University Boulevard, Manassas, Va. 20110 USA) were seeded in four 100 mm petri dishes at a seeding density of 1.5×10^6 cells per plate and incubated overnight at 37° C. in a 5% CO2 incubator. The transfection mix was prepared as follows. (A) 10 μg DNA (pCDNA4 V5/HisA vector containing Zeocin as mammalian selection marker, procured from Invitrogen) with the full length human FAK gene represented by the nucleotide sequence provided in NCBI Reference Sequence: NM_153831.3, SEQ ID NO: 1:
was added to 1.5 mL Opti-MEM® (reduced serum media is a modification of Eagle's Minimum Essential Media, buffered with HEPES and sodium bicarbonate and supplemented with hypoxanthine, thymidine, sodium pyruvate, L-glutamine, trace elements and growth factors commercially available from Invitrogen) and incubated at room temperature for 5 minutes. (B) 30 μL Lipofectamine™ Transfection reagent (Life Technologies) was added to 1.5 mL Opti-MEM® and incubated at room temperature for 5 minutes. Following this, (a) and (b) were mixed and incubated at room temperature for 20 minutes. Media was removed from cells and washed with 1× phosphate buffered saline (PBS) and the transfection mix prepared above was mixed with 3 mL of Opti-MEM®, added to the cells and incubated at 37° C. Four hours later, 6 mL of 20% Dulbecco's Modified Eagle Medium (DMEM) was added to the plates and incubated at 37° C. in a 5% CO2 incubator. Approximately 72 hours after transfection, cells were subcultured at various dilutions with fresh medium containing 0.8 mg/mL Zeocin™ (Life Technologies). Cells were replenished with selective medium every 3-4 days until cell foci were identified in the FAK transfected cells and most of the cells died in the control plates. Cells from these foci were grown in the presence of selective media and the expression of FAK was confirmed by Western Blotting. Over expression of FAK in the stably-transfected cells was quantified in the cell-based ELISA assay described below by determining the signal window, with a signal window of 2 or above considered to be robust). The HEK-FAK stable cell line thus was maintained in 0.8 mg/mL Zeocin™ (Life Technologies) and used in cell-based ELISA to assess autophosphorylation of FAK.
(i) Materials • 1. Phospho-FAK (Y397)-Capture Antibody • 2. Phospho-FAK (Y397)-Detection Antibody • 3. Streptavidin-HRP • 4. Cells used for the assay-HEK over expressing human FL FAK protein
(ii) Solutions • PBS—137 mM NaCl, 2.7 mM KCl, 8.1 mM Na2HPO4, 1.5 mM KH2PO4, pH 7.2-7.4, 0.2 μm filtered. • Wash Buffer—0.05% Tween20™ in PBS, pH 7.2-7.4 • Block Buffer—1% BSA, 0.05% NaN3, in PBS, pH 7.2-7.4. • IC Diluent #1-1% BSA in PBS, pH 7.2-7.4, 0.2 μm filtered. • IC Diluent #8-1 mM EDTA, 0.5% Triton™ X-100, 5 mM NaF in PBS, pH 7.2-7.4. IC Diluent #8 was also the base buffer for IC Diluent #3, IC Diluent #7, and Lysis. • Buffer #6. […]

The target in a further test is T2, recombinant human FAK1 (Homo sapiens, UniProt Q05397).
T2 construct: fused on or other part: N-terminal 6xHis tag
Kind of test: FAK1 HTRF assay. It is filed as biochemical. Summed up: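 IC50 values derive from HTRF % inhibition (ratio 665/620 nm, Eu–anti-phosphotyrosine 0.1 nM, SA-APC 12 nM). The kinase step ran 45 min at room temperature, pairing 10 nM His-FAK1(692–end) from baculovirus with 0.5 μM gastrin Tyr87 biotin-peptide and a reagent at 10 μM final, pH 7.4. Compound dilutions began at 10 μM.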
A general note: Time-resolved FRET reads energy transfer from a long-lived donor to a nearby acceptor.

The mark [2] stands for this setting: read-out: pFAK EC50 (μM) HEK stb.

From patent publication US20160222014A1, “COMPOUNDS FOR REGULATING FAK AND/OR SRC PATHWAYS” (ASANA BIOSCIENCES, LLC, priority 2013, published 2016) come the findings set out here.

The EC50 is the concentration at which the effect is half-maximal. The term IC50 denotes the concentration that gives 50% inhibition.

Read-outs that look alike come from different tables or passages of the source.

T2 sequence (Q05397 422-680 limits assumed): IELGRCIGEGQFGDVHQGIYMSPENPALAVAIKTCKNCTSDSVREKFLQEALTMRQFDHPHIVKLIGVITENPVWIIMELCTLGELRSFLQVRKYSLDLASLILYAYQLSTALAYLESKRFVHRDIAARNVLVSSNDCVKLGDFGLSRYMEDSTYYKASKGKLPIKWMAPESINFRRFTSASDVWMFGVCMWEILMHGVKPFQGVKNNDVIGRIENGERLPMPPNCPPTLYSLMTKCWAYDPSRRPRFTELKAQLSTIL
T1 sequence (Q05397 whole entry): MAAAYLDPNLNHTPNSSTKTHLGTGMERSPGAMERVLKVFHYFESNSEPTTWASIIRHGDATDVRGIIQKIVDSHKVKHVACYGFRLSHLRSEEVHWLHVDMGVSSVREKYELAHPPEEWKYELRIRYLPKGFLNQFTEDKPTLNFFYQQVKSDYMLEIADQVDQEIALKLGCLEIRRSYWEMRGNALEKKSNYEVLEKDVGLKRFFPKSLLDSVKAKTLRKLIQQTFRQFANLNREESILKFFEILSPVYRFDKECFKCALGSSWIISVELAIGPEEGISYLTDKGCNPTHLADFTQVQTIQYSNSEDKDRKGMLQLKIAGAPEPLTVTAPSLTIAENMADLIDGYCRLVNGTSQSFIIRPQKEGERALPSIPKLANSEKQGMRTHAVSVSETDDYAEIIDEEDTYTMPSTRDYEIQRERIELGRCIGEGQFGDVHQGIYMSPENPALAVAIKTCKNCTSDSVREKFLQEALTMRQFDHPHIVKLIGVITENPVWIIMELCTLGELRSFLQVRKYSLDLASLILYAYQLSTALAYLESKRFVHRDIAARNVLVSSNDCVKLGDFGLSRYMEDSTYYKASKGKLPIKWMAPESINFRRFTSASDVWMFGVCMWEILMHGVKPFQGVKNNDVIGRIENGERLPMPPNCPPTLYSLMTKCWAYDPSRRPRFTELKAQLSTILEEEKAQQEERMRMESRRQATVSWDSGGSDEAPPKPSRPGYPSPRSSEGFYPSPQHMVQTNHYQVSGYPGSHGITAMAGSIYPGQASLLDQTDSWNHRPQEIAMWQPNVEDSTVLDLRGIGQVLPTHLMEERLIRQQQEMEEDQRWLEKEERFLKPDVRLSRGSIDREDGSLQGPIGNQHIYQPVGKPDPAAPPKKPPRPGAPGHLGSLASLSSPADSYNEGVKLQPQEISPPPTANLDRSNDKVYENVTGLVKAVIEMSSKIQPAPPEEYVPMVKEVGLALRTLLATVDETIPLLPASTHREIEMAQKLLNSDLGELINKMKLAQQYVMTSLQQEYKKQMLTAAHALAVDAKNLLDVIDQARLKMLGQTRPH

In the case of `CN(c1ncccc1Cn1ccc2cnc(Nc3ccc(N4CCNC(CF)C4)cc3)nc21)S(C)(=O)=O` (stereo not drawn) [Example 737, N-(3-((2-((4-(3-(fluoromethyl)piperazin-1-yl)phenyl)amino)-7H-pyrrolo[2,3-d]pyrimidin-7-yl)methyl)pyridin-2-yl)-N-methylmethanesulfonamide], the EC50 in test [1] (setting [2]) was greater than 1 µM.

With `CN1CCCN(c2ccc(Nc3ncc4ccn(Cc5ccccc5N(C)S(C)(=O)=O)c4n3)cc2)CC1` [Example 520], in test [1] (setting [2]), the concentration for a half-maximal effect (EC50) is greater than 1 µM.

As to `CN(c1ncccc1Cn1ccc2cnc(Nc3ccc4c(c3)CCC(=O)N4)cc21)S(C)(=O)=O` [Example 31], the concentration giving a half-maximal response (EC50) in test [1] (setting [2]) was greater than 1 µM. The concentration for half-maximal inhibition (IC50) on recombinant human FAK1 is less than 20 nM.

For the molecule `CC1(C)CN(S(=O)(=O)c2ccccc2OC(F)F)c2nc(Nc3ccc(N4CCNCC4)cc3)ncc21` [Example 464], in test [1] (setting [2]), the EC50 was greater than 1 µM.

On to `CN(c1ccccc1Cn1ncc2cnc(Nc3ccc4c(c3)CCC(=O)N4)cc21)S(C)(=O)=O` [Example 225], for which the EC50 in test [1] (setting [2]) was greater than 1 µM. Further, the IC50 on recombinant human FAK1 was less than 20 nM.

Take `COc1ccc(N(C)S(C)(=O)=O)c(Cn2ccc3cnc(Nc4ccc(N5CCC(N(C)C)CC5)cc4)nc32)c1` [Example 706]: the EC50 in test [1] (setting [2]) was less than 0.02 µM. Also, the IC50 on recombinant human FAK1 is less than 20 nM.

Consider `C[C@@H]1CN(c2ccc(Nc3ncc4c(n3)N(c3ccccn3)CC4(C)C)cc2)CCN1` [Example 726], for which the 50% effective concentration (EC50) in test [1] (setting [2]) is greater than 1 µM.

As for `CN(c1ncccc1Cn1ccc2cnc(Nc3ccc4c(c3)OCCN4)nc21)S(C)(=O)=O` [Example 221], in test [1] (setting [2]), the 50% effective concentration (EC50) was greater than 1 µM.

Turning to `CN(c1ncccc1Cn1ccc2cnc(Nc3ccc(N4CC5CC4CN5)cc3)nc21)S(C)(=O)=O` (stereo not drawn) [Example 372], the EC50 in test [1] (setting [2]) is greater than 1 µM.

Regarding `CN(c1ccccc1Cn1ccc2cnc(Nc3ccc(N4CCNCC4)c(CO)c3)nc21)S(C)(=O)=O` [Example 568], in test [1] (setting [2]), the concentration giving a half-maximal response (EC50) is greater than 1 µM.

In the case of `COc1cc(Nc2ncc3ccn(Cc4ccccc4N(C)S(C)(=O)=O)c3n2)ccc1N1CCN(CCO)CC1` [Example 421], the EC50 in test [1] (setting [2]) is greater than 1 µM. For the same molecule, the IC50 on recombinant human FAK1 was less than 20 nM.

With `CN(c1ncccc1Cn1ccc2cnc(Nc3ccc(N4CCCC(N)C4)cc3)nc21)S(C)(=O)=O` (stereo not drawn) [Example 776], the half-maximal effective concentration (EC50) in test [1] (setting [2]) was greater than 1 µM.

As to `Cc1cc(Nc2ncc3ccn(Cc4cccnc4N(C)S(C)(=O)=O)c3n2)ccc1C1CCN(CCO)CC1` [Example 887], in test [1] (read-out: pFAK EC50 HEK stb), the EC50 is greater than 1 µM.

In the case of `C[C@H]1CN(C)CCN1c1ccc(Nc2ncc3ccn(Cc4cccnc4N(C)S(C)(=O)=O)c3n2)cc1` [Example 497], the EC50 in test [1] (setting [2]) is greater than 1 µM.

In the case of `CN(c1ncccc1Cn1ccc2cnc(Nc3ccc4[nH]c(C5CCNCC5)cc4c3)nc21)S(C)(=O)=O` [Example 677], the concentration for a half-maximal effect (EC50) in test [1] (setting [2]) was greater than 1 µM.

In the case of `C[C@@H]1CN(c2ccc(Nc3cc4c(ccn4S(=O)(=O)c4ccccc4C#N)cn3)cc2)CCN1` [Example 537], the EC50 in test [1] (setting [2]) was greater than 1 µM.

For the molecule `CNC(=O)c1ccc(Nc2ncc3ccn(Cc4cccnc4N(C)S(C)(=O)=O)c3n2)cc1` [Example 982], the EC50 in test [1] (read-out: pFAK EC50 HEK stb) is greater than 1 µM.

For the molecule `CN(c1ccccc1Cn1ccc2cnc(Nc3ccc4c(c3)C(=O)NC4=O)nc21)S(C)(=O)=O` [Example 435], the concentration for a half-maximal effect (EC50) in test [1] (setting [2]) was greater than 1 µM.

Consider `O=S(=O)(c1ccccc1Cl)n1ncc2cnc(Nc3ccc(N4CCNCC4)cc3)nc21` [Example 254], for which the EC50 in test [1] (setting [2]) is greater than 1 µM.

As to `CN(c1ncccc1Cn1ccc2cnc(Nc3ccc4c(c3)CC3CNCCN43)nc21)S(C)(=O)=O` (stereo not drawn) [Example 538], in test [1] (setting [2]), the EC50 was greater than 1 µM.

Take `CN(C)C1CCN(c2ccc(Nc3ncc4ccn(Cc5cccnc5N(C)S(C)(=O)=O)c4n3)cc2)CC1` [Example 530]: in test [1] (setting [2]), the EC50 was greater than 1 µM.

Regarding `O=S(=O)(c1cccc(Cl)c1)n1ncc2cnc(Nc3ccc(N4CCNCC4)cc3)cc21` [Example 308], the 50% effective concentration (EC50) in test [1] (setting [2]) is greater than 1 µM.

As to `CN(c1ncccc1Cn1ncc2cnc(Nc3ccc(N4CCC(O)CC4)cc3)cc21)S(C)(=O)=O` [Example 394], the EC50 in test [1] (setting [2]) was greater than 1 µM.

For the molecule `CN1CCN(c2ccc(Nc3cc4c(ccn4S(=O)(=O)c4ccccc4C#N)cn3)cc2)CC1` [Example 506], the EC50 in test [1] (setting [2]) is greater than 1 µM. Further, at recombinant human FAK1, the half-maximal inhibitory concentration (IC50) is less than 20 nM.

On to `Cc1ccccc1S(=O)(=O)n1ccc2cnc(Nc3ccc(N4CCNCC4)cc3)nc21` [Example 233], for which, in test [1] (setting [2]), the EC50 was greater than 1 µM.

In the case of `C[C@H](O)CN1CCN(c2ccc(Nc3ncc4ccn(Cc5cccnc5N(C)S(C)(=O)=O)c4n3)cc2)C[C@@H]1C` [Example 663, N-(3-((2-((4-((S)-4-((S)-2-Hydroxypropyl)-3-methylpiperazin-1-yl)phenyl)amino)-7H-pyrrolo[2,3-d]pyrimidin-7-yl)methyl)pyridin-2-yl)-N-methylmethanesulfonamide], in test [1] (setting [2]), the EC50 was greater than 1 µM.

Take `COc1c(Nc2ncc3ccn(Cc4ccccc4N(C)S(C)(=O)=O)c3n2)ccc(N2CCNCC2)c1F` [Example 456]: the EC50 in test [1] (setting [2]) was greater than 1 µM.

As to `CN(c1ncccc1Cn1ccc2cnc(Nc3ccc(N4CCNC(C)(C)C4=O)cc3)nc21)S(C)(=O)=O` [Example 540], the EC50 in test [1] (setting [2]) was greater than 1 µM.

Turning to `CN(c1ncccc1Cn1ccc2cnc(Nc3ccc(N4CCCNCC4)cc3)nc21)S(C)(=O)=O` [Example 549], the concentration for a half-maximal effect (EC50) in test [1] (setting [2]) was greater than 1 µM.

Take `CN(c1ncccc1Cn1ccc2cnc(Nc3ccc(OCCN4CCOCC4)cc3)nc21)S(C)(=O)=O` [Example 613]: the EC50 in test [1] (setting [2]) was greater than 1 µM.

In the case of `CN(c1ncccc1Cn1ccc2cnc(Nc3ccc(NC4CCNCC4)cc3)nc21)S(C)(=O)=O` [Example 684], the EC50 in test [1] (setting [2]) was greater than 1 µM.

Consider `CN(c1ccccc1Cn1ccc2cnc(Nc3ccc4c(c3)CC3CNCCN43)nc21)S(C)(=O)=O` (stereo not drawn) [Example 526], for which the EC50 in test [1] (setting [2]) was greater than 1 µM. Further, the IC50 on recombinant human FAK1 was less than 20 nM.

For `CN(c1ncccc1Cn1ccc2cnc(Nc3ccc(-c4ccc(=O)[nH]c4)cc3)nc21)S(C)(=O)=O` [Example 688], the 50% effective concentration (EC50) in test [1] (setting [2]) was greater than 1 µM.

For `C[C@H]1CN(c2ccc(Nc3ncc4ccn(Cc5ccccc5NS(=O)(=O)CCCF)c4n3)cc2)CCN1` [Example 723], the concentration for a half-maximal effect (EC50) in test [1] (setting [2]) was greater than 1 µM.

In the case of `CN(C)C1CN(c2ccc(Nc3ncc4ccn(Cc5cccnc5N(C)S(C)(=O)=O)c4n3)cc2)C1` [Example 580], in test [1] (setting [2]), the half-maximal effective concentration (EC50) was greater than 1 µM.

Regarding `CN(c1ncccc1Cn1ccc2cnc(Nc3ccc4[nH]ccc4c3)nc21)S(C)(=O)=O` [Example 667], the half-maximal effective concentration (EC50) in test [1] (setting [2]) was greater than 1 µM.

In the case of `CN1C(=O)Cc2cc(Nc3ncc4ccn(Cc5cccnc5N(C)S(C)(=O)=O)c4n3)ccc21` [Example 560], the EC50 in test [1] (setting [2]) was greater than 1 µM.

For the molecule `CN(C)Cc1ccc(Nc2ncc3ccn(Cc4cccnc4N(C)S(C)(=O)=O)c3n2)cc1` [Example 207], in test [1] (setting [2]), the concentration giving a half-maximal response (EC50) is greater than 1 µM.

Consider `CN(c1ccccc1Cn1ccc2cnc(Nc3ccc4[nH]c(C(=O)N5CCNCC5)cc4c3)nc21)S(C)(=O)=O` [Example 698], for which the EC50 in test [1] (setting [2]) is greater than 1 µM.

Regarding `CN(C)C1CCN(c2ccc(Nc3ncc4ccn(Cc5cccnc5N(C)S(C)(=O)=O)c4n3)cc2)C1` (stereo not drawn) [Example 589], the EC50 in test [1] (setting [2]) was greater than 1 µM.

In the case of `CC1CN(c2ccc(Nc3ncc4ccn(Cc5cccnc5N(C)S(C)(=O)=O)c4n3)cc2)CC(C)N1` (stereo not drawn) [Example 522], the concentration for a half-maximal effect (EC50) in test [1] (setting [2]) is greater than 1 µM.

Take `C[C@@H](O)CN1CCN(c2ccc(Nc3ncc4ccn(Cc5cccnc5N(C)S(C)(=O)=O)c4n3)cc2)CC1` [Example 666]: the EC50 in test [1] (setting [2]) is greater than 1 µM.
